The source of these data is patent US12441736B2, “KIF18A inhibitors” (AMGEN INC., priority 2018, dated 2025).

T1 sequence (Q8NI77 1-467): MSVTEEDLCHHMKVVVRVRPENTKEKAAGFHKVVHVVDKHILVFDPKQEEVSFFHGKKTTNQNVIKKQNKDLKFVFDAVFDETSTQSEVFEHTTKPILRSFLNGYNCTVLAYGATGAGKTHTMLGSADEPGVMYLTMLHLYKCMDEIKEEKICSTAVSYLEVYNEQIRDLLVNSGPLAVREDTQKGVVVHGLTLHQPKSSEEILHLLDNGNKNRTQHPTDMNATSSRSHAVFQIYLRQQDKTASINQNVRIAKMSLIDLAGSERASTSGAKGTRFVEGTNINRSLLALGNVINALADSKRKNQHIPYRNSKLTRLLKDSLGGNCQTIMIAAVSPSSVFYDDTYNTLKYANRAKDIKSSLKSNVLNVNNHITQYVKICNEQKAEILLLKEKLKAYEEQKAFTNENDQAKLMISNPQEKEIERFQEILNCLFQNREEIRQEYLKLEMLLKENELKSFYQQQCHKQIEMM
T1 sequence (P02550 whole entry partner): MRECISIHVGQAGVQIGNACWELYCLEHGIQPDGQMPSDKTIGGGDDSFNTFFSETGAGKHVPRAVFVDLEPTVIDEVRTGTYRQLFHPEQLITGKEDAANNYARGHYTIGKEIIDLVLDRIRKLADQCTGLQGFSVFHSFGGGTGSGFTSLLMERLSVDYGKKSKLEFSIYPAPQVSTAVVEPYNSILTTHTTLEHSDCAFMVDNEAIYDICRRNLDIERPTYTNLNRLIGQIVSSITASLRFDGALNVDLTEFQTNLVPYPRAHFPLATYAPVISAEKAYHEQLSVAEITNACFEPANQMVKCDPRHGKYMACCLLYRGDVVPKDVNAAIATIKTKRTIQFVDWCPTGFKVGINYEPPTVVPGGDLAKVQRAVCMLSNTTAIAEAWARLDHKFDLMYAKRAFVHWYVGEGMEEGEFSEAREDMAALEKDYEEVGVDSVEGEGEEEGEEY
T1 sequence (P02554 whole entry partner): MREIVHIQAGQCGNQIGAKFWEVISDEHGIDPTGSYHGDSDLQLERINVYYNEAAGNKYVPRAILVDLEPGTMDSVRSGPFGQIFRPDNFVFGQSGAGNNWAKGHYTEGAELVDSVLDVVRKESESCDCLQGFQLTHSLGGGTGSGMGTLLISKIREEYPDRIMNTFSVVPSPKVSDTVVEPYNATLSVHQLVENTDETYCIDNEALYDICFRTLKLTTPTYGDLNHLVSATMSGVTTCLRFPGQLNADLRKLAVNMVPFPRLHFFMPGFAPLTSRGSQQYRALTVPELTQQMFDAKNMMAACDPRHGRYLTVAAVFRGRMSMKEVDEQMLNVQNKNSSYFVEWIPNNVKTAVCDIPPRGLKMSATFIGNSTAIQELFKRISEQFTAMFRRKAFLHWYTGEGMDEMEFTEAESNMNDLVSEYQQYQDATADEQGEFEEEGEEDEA

The test concerns the target T1, Recombinant human KIF18A (1-467 His-tagged) protein (Homo sapiens, UniProt Q8NI77).
T1 construct: Recombinant human KIF18A (1-467 His-tagged) protein; His; made in house
Nature of the test: KIF18A Enzyme Assay: microtubule-stimulated ATPase activity (ADP-Glo). The format is biochemical. The settings on record: 30 nM KIF18A, 30 μg/mL pig microtubules, 75 μM ATP, ADP-Glo luminescence. From the text:
KIF18A Enzyme Assay: Microtubule-stimulated ATPase activity assay is used to measure KIF18A enzyme activity after treatment with compound. Compounds were 2-fold serially diluted in DMSO (Sigma Inc) over 22-point concentration range. Recombinant human KIF18A (1-467 His-tagged) protein was expressed using a baculovirus system and purified by affinity chromatography by Amgen Inc. Concentrations of KIF18A protein, microtubules (MT), and ATP in the reaction were optimized for standardized homogenous enzyme assay using ADP-Glo™ Kinase/ATPase Assay Kit (Promega Inc). The assay measures ADP formed from the ATPase reaction. Prepare reaction buffer [(15 mM Tris, pH 7.5 (Teknova Inc), 10 mM MgCl2 (IT Baker Inc), 0.01% Pluronic F-68 (Life Technologies Inc), 1 μM Taxol (Cytoskeleton Inc), and 30 μg/mL pig microtubules (Cytoskeleton Inc)]. Add compound and KIF18A protein (30 nM) to prepared reaction buffer and incubated for 15 minutes at room temperature, next add ATP (at Kin, 75 μM) to the reaction mixture and incubated for an additional 15 minutes at room temperature. Mix 5 μl of ADP-Glo™ Reagent and 2.5 μl of the reaction mixture and incubate for 40 minutes at room temperature. Add 10 μl ADP-Glo™ Detection Reagent and incubate for 40 minutes at room temperature. Read luminescence using EnVision microplate reader with ultra-luminescence module (Perkin Elmer Inc). Concentration-response curve-fitting and IC50 determination was performed using Genedata Screener Software (Standard 15.0.1, Genedata Inc) with a four-parameter logistic regression fit model.
Table A provides data for compounds exemplified in the present application and priority document thereof, as representative compounds of the present invention, as follows: chemical name (as named by either ACD software or ChemDraw (Professional 15.0)) and biological data (IC50 in μM). Ex. # refers to Example No.
On the technique in general: In ADP-Glo the light output rises with the ADP produced.
In general, IC50 refers to the concentration that inhibits the measured activity by half. On to `C[C@@H]1CN(c2cccc(NC(=O)c3ncc(N4C(=O)OCC4(C)C)nc3N3CCC4(CC3)CC4)n2)CCO1` [Example 103, 3-(6-azaspiro[2.5]oct-6-yl)-5-(4,4-dimethyl-2-oxo-1,3-oxazolidin-3-yl)-N-(6-((2R)-2-methyl-4-morpholinyl)-2-pyridinyl)-2-pyrazinecarboxamide], for which the IC50 was determined as 1940 nM.
As for `C[C@@H]1CN(c2cccc(NC(=O)c3ncc(NC(C)(C)CO)nc3N3CCC4(CC3)CC4)n2)CCO1` [Example 104, (R)-5-((1-hydroxy-2-methylpropan-2-yl)amino)-N-(6-(2-methylmorpholino)pyridin-2-yl)-3-(6-azaspiro[2.5]octan-6-yl)pyrazine-2-carboxamide], the figure is 83.4 nM; as for `C[C@H]1CCN(c2cccc(NC(=O)c3ncc(NC(C)(C)CO)nc3N3CCC4(CC3)CC4)n2)C1` [Example 105, 3-(6-azaspiro[2.5]oct-6-yl)-5-((1-hydroxy-2-methyl-2-propanyl)amino)-N-(6-((3S)-3-methyl-1-pyrrolidinyl)-2-pyridinyl)-2-pyrazinecarboxamide], 122 nM.
Consider `CC(C)(CO)Nc1cnc(C(=O)Nc2cccc(N3CCOCC3)n2)c(N2CCC3(CC2)CC3)n1` [Example 106, 3-(6-azaspiro[2.5]oct-6-yl)-5-((2-hydroxy-1,1-dimethylethyl)amino)-N-(6-(4-morpholinyl)-2-pyridinyl)-2-pyrazinecarboxamide], for which the IC50 is 84.4 nM.
The value for `CC1(C)CC(=O)N(c2cccc(NC(=O)c3ncc(NC(C)(C)CO)nc3N3CCC4(CC3)CC4)n2)C1` [Example 107, 3-(6-azaspiro[2.5]oct-6-yl)-N-(6-(4,4-dimethyl-2-oxo-1-pyrrolidinyl)-2-pyridinyl)-5-((1-hydroxy-2-methyl-2-propanyl)amino)-2-pyrazinecarboxamide] was 111 nM; that for `CC(C)(C)NS(=O)(=O)c1cccc(NC(=O)c2ncc(NC(C)(CO)CO)nc2N2CCC3(CC2)CC3)n1` [Example 108, N-(6-(N-(tert-butyl)sulfamoyl)pyridin-2-yl)-5-((1,3-dihydroxy-2-methylpropan-2-yl)amino)-3-(6-azaspiro[2.5]octan-6-yl)pyrazine-2-carboxamide] was 87.8 nM.
For `CC(C)(C)NS(=O)(=O)c1cccc(NC(=O)c2ncc(NC3(CO)CC3)nc2N2CCC3(CC2)CC3)n1` [Example 109, 3-(6-azaspiro[2.5]oct-6-yl)-5-((1-(hydroxymethyl)cyclopropyl)amino)-N-(6-((2-methyl-2-propanyl)sulfamoyl)-2-pyridinyl)-2-pyrazinecarboxamide], the IC50 is 79.3 nM.
For the compound `CC(C)(C)NS(=O)(=O)c1cccc(NC(=O)c2ncc(C(C)(O)C(F)(F)F)nc2N2CCC3(CC2)CC3)n1` (stereo not drawn) [Example 110, N-(6-(N-(tert-butyl)sulfamoyl)pyridin-2-yl)-3-(6-azaspiro[2.5]octan-6-yl)-5-(1,1,1-trifluoro-2-hydroxypropan-2-yl)pyrazine-2-carboxamide], the IC50 was found to be 260 nM.
As for `CC(C)(CO)Nc1cnc(C(=O)Nc2cc(Cl)cc(N3CCOCC3)n2)c(N2CCC3(CC2)CC3)n1` [Example 113, 3-(6-azaspiro[2.5]oct-6-yl)-N-(4-chloro-6-(4-morpholinyl)-2-pyridinyl)-5-((1-hydroxy-2-methyl-2-propanyl)amino)-2-pyrazinecarboxamide], the figure is 112 nM.
Turning to `Cc1cc(NC(=O)c2ncc(NC(C)(C)CO)nc2N2CCC3(CC2)CC3)nc(N2CCOCC2)c1` [Example 114, 3-(6-azaspiro[2.5]octan-6-yl)-5-((1-hydroxy-2-methyl-2-propanyl)amino)-N-(4-methyl-6-(4-morpholinyl)-2-pyridinyl)-2-pyrazinecarboxamide], the IC50 was 178 nM.
The value for `CC(CO)(CO)Nc1cnc(C(=O)Nc2cccc(N3CCOCC3)n2)c(N2CCC3(CC2)CC3)n1` [Example 115, 3-(6-azaspiro[2.5]octan-6-yl)-5-((1,3-dihydroxy-2-methyl-2-propanyl)amino)-N-(6-(4-morpholinyl)-2-pyridinyl)-2-pyrazinecarboxamide] was 106 nM; that for `COc1cc(NC(=O)c2ncc(NC(C)(C)CO)nc2N2CCC3(CC2)CC3)nc(N2CCOCC2)c1` [Example 116, 3-(6-azaspiro[2.5]octan-6-yl)-5-((1-hydroxy-2-methyl-2-propanyl)amino)-N-(4-methoxy-6-(4-morpholinyl)-2-pyridinyl)-2-pyrazinecarboxamide] was 1160 nM.
As for `CC(C)(CO)Nc1cnc(C(=O)Nc2cc(C#N)cc(N3CCOCC3)n2)c(N2CCC3(CC2)CC3)n1` [Example 117, 3-(6-azaspiro[2.5]octan-6-yl)-N-(4-cyano-6-(4-morpholinyl)-2-pyridinyl)-5-((1-hydroxy-2-methyl-2-propanyl)amino)-2-pyrazinecarboxamide], the IC50 amounted to 138 nM.
The value for `CC(C)(CO)Nc1cnc(C(=O)Nc2cc(C3CC3)cc(N3CCOCC3)n2)c(N2CCC3(CC2)CC3)n1` [Example 118, 3-(6-azaspiro[2.5]octan-6-yl)-N-(4-cyclopropyl-6-(4-morpholinyl)-2-pyridinyl)-5-((1-hydroxy-2-methyl-2-propanyl)amino)-2-pyrazinecarboxamide] was 540 nM; that for `CC(C)(C)NS(=O)(=O)c1cccc(NC(=O)c2ncc(N3C(=O)OCC3(C)C)nc2N2CCC3(CC2)CC3)n1` [Example 119, 3-(6-azaspiro[2.5]octan-6-yl)-5-(4,4-dimethyl-2-oxo-1,3-oxazolidin-3-yl)-N-(6-((2-methyl-2-propanyl)sulfamoyl)-2-pyridinyl)-2-pyrazinecarboxamide] was 817 nM.
For the compound `CC(C)(CO)Nc1cnc(C(=O)Nc2cccc(N3CCO[C@H](CO)C3)n2)c(N2CCC3(CC2)CC3)n1` [Example 120, 3-(6-azaspiro[2.5]octan-6-yl)-N-(6-((2S)-2-(hydroxymethyl)-4-morpholinyl)-2-pyridinyl)-5-((1-hydroxy-2-methyl-2-propanyl)amino)-2-pyrazinecarboxamide], the IC50 amounted to 176 nM.
In the case of `C[C@@H]1CN(c2cccc(NC(=O)c3ncc(NS(C)(=O)=O)nc3N3CCC4(CC3)CC4)n2)CCO1` [Example 121, 3-(6-azaspiro[2.5]octan-6-yl)-N-(6-((2R)-2-methyl-4-morpholinyl)-2-pyridinyl)-5-((methylsulfonyl)amino)-2-pyrazinecarboxamide], the IC50 worked out at 642 nM.
As for `CC(C)(CO)Nc1ccc(C(=O)Nc2cccc(-c3ncco3)n2)c(N2CCC3(CC2)CC3)n1` [Example 122, 2-(6-azaspiro[2.5]oct-6-yl)-6-((2-hydroxy-1,1-dimethylethyl)amino)-N-(6-(1,3-oxazol-2-yl)-2-pyridinyl)-3-pyridinecarboxamide], the figure is 316 nM.
In the case of `CC(C)(C)NS(=O)(=O)c1cccc(NC(=O)c2ccc(NC(C)(C)CO)nc2N2CCC3(CC2)CC3)n1` [Example 123, 2-(6-azaspiro[2.5]oct-6-yl)-N-(6-(tert-butylsulfamoyl)-2-pyridinyl)-6-((2-hydroxy-1,1-dimethylethyl)amino)-3-pyridinecarboxamide], the IC50 came to 64 nM.
Consider `COC1CCN(c2cccc(NC(=O)c3ccc(NC(C)(C)CO)nc3N3CCC4(CC3)CC4)n2)C1` (stereo not drawn) [Example 124, 6-((1-hydroxy-2-methylpropan-2-yl)amino)-N-(6-(3-methoxypyrrolidin-l-yl)pyridin-2-yl)-2-(6-azaspiro[2.5]octan-6-yl)nicotinamide], for which the IC50 is 407 nM.
For the compound `CC(C)(CO)Nc1ccc(C(=O)Nc2cccc(N3CCCC3)n2)c(N2CCC3(CC2)CC3)n1` [Example 125, 2-(6-azaspiro[2.5]oct-6-yl)-6-((2-hydroxy-1,1-dimethylethyl)amino)-N-(6-(1-pyrrolidinyl)-2-pyridinyl)-3-pyridinecarboxamide], the IC50 was determined as 136 nM.
`CC1CN(c2cccc(NC(=O)c3ccc(NC(C)(C)CO)nc3N3CCC4(CC3)CC4)n2)CCO1` (stereo not drawn) [Example 126, 6-((1-hydroxy-2-methylpropan-2-yl)amino)-N-(6-(2-methylmorpholino)pyridin-2-yl)-2-(6-azaspiro[2.5]octan-6-yl)nicotinamide]: the IC50 was 60.2 nM.
As for `CC(C)(CO)Nc1ccc(C(=O)Nc2cccc(N3CCOCC3)n2)c(N2CCC3(CC2)CC3)n1` [Example 127, 2-(6-azaspiro[2.5]oct-6-yl)-6-((2-hydroxy-1,1-dimethylethyl)amino)-N-(6-(4-morpholinyl)-2-pyridinyl)-3-pyridinecarboxamide], the IC50 amounted to 52.5 nM.
As for `CC1(C)CCN(c2cccc(NC(=O)c3ccc(NC(C)(C)CO)nc3N3CCC4(CC3)CC4)n2)C1` [Example 128, 2-(6-azaspiro[2.5]oct-6-yl)-N-(6-(3,3-dimethyl-l-pyrrolidinyl)-2-pyridinyl)-6-((2-hydroxy-1,1-dimethylethyl)amino)-3-pyridinecarboxamide], the figure is 95.3 nM.
